Reference: patent US12252697B2 (priority 2019, dated 2025)
Entries after “also recorded” stand apart in the source; their conditions may differ.

Legend:
[1] = system: Sisymbrium orientale PB-R1 plants; conditions: PB-R1 plants vs Roseworthy S plants; cited from earlier work
[2] = system: S. orientale RILs root growth; test: root growth assay, S. orientale inbred lines; format: in vivo, Sisymbrium orientale; conditions: S. orientale RILs homozygous for IAA2Δ27 vs IAA2 wild-type allele
Method: (§1) All root assays were performed on 120 mm square petri dishes with half MS and 1% phytoagar. […] For the mustard root assay, ten seedlings (3 days after germination) of F5 RILs of each phenotype were transferred to an auxin treated or control plate, the root tip of each plant was marked and root growth was evaluated seven days after treatment. For Arabidopsis, sterilized seeds were planted directly on the treated petri dish and incubated at 4° C. for seed […] and moved to the growth chamber after 3 days. T3 homozygous plants of 35::SoIAA2WT, 35::SoIAA2Δ27, the T-DNA insertion line on AtIAA2 and the empty T-DNA from PFGC5941 plasmid as control were used in this study. Twelve plants per construct ware used in total and roots were measured three weeks after the plates were moved to the growth conditions. For all root assays, seeds were gas sterilized for 6 hours using bleach and hydrochloric acid. The plants were grown under controlled conditions of 180 uMol m^−2 light intensity, relative humidity of 60%, 16 hours of day and day/night temperatures of 22/18° C.

Arabidopsis root growth = test: root growth assay, transformed Arabidopsis; format: in vivo, Arabidopsis thaliana; conditions: for root growth tolerance compared with null vector or wild type gene: Arabidopsis transformed with mutant S. orientale IAA2Δ27; for root growth response: Arabidopsis transformed with the null vector
Method: as §1

TIR1/auxin/IAA complex = test: surface plasmon resonance (SPR) binding assay; set-up: species or system Sisymbrium orientale; conditions: mutant IAA2Δ27 peptide vs IAA2 wild-type; compound 50 μM
From the text: In short, this assay measures the binding of auxin and IAA to the receptor protein TIR1 and their unbinding.
Surface plasmon resonance (SPR) experiments were done according to published protocols. TIR1/AFBS was expressed in insect cell culture using a recombinant baculovirus. The construct contained sequences for three affinity tags, namely 6 His, maltose-binding protein (MBP) and FLAG. Initial purification using the His tag was followed by clean-up using FLAG chromatography, the purified protein was used for SPR assays by passing it over a streptavidin chip loaded with biotinylated IAA2/IAA7 degron peptides.
The SPR buffer was Hepes-buffered saline with 10 mM Hepes, 3 mM EDTA, 150 mM NaCl and 0.05% Tween 20. Compounds to be tested were premixed with the protein to a final 50 μM concentration. Binding experiments were run at a flow rate of 30 μl min^−1 using 2.0 min of injection time and 4.0 min of dissociation time. Data from a control channel (mIAA7) and from a buffer+DMSO-only run were subtracted from each sensogram following the standard double reference subtraction protocol.

IAA2 expression = IAA2 expression by Q-PCR after auxin treatment of seedlings; format: in vivo, Sisymbrium orientale; conditions: for increase of IAA2 expression compared to untreated plants and DMSO control: 2 hr exposure
Method: To study IAA2 expression under auxin treatments sterilized seeds from F5 RILs for each phenotype were planted in half MS and grown until expanded cotyledon stage (size was about 2 cm from root to cotyledon tips). […] After exposure plants were collected into 2 ml centrifuge tubes and frozen in liquid nitrogen. RNA was extracted using Direct-zol RNA Microprep from Zymo research, DNAase treatment was done using DNaseI from Invitogen—ThermoFisher and cDNA was generated using iScript™ according to each manufacture protocol. Q-PCR (CFX Connect™ Real-Time PCR Detection System thermal cycler, BioRad, Hercules, Calif.) was used to determine IAA2 expression. The qPCR reaction contained 12.5 μl of SYBR Green (PerfeCTa SYBR Green FastMix), 1 μl each of forward and reverse primers (5 μM), and 1 uL of cDNA for a final reaction volume of […] parameters were 50° C. for 2 min, 95° C. for 10 min, and 40 cycles of 95° C. for 30 s and 60° C. for 1 min. Relative expression quantification was calculated by Expression=2^ΔCt, where ΔCT=CT(average of Actin2 and Cyclophilin)−CT(IAA2). Each biological sample was run in two technical replicates.

[3] = system: S. orientale populations from Southern Australia; test: single-rate 2,4-D resistance screen of S. orientale populations; format: in vivo, Sisymbrium orientale; conditions: eight populations; 250 g ha^-1 2,4-D at 4-leaf stage; leaf curl 48 h, confirmed 21 days
Method: The presence of IAA2Δ27 in other 2,4-D resistant populations of S. orientale was also investigated. Seeds of S. orientale populations were germinated by sowing directly onto the soil surface of seedling trays containing standard potting mix. Once emerged, seedlings were transplanted into 9.5×8.5×9.5 cm punnet pots and grown outdoors at the Waite Campus, University of Adelaide, Australia. At the 4-leaf stage, plants were treated with a single rate of 250 g. a. ha^−1 2,4-D (2,4-D amine 650, FMC) to screen for resistance. Herbicide was applied using a laboratory moving boom pesticide applicator and applied at an equivalent of 109 L ha−1 of water at a pressure of 250 kPa and a speed of 1 m s−1 using Tee-Jet 001 nozzles (Tee-Jet 8001E; Spraying Systems Co., Wheaton, Ill.). Leaf curl was assessed 48 h after treatment, with any plants showing signs of leaf curl considered susceptible and tissue harvested, while the remaining plants were considered resistant and allowed to grow for a further 21 days to confirm resistance and tissue subsequently harvested.

[4] = system: Arabidopsis thaliana (Col-0); test: 2,4-D spray of transformed Arabidopsis; format: in vivo; conditions: 200 g a.i. ha^-1
Method: Arabidopsis transformation was performed based on established protocols with modifications. IAA2 alleles were amplified by PCR from cDNA generated from RNA extracts of homozygous R and S F5 lines (cross A). RNA was extracted using Direct-zol RNA Miniprep Plus Kit (Zymo). cDNA synthesis was performed using oligo(dT)20 primers from SuperScript™ II Reverse Transcriptase (Invitrogen). Wild-type and mutant alleles were amplified by PCR using PrimeSTAR HS Premix (Takara), using primers linked with restriction enzyme sites for cloning. Purified PCR amplicons were ligated into the pGEM-T Easy Vector (Promega), transformed into E. coli, sequenced by Sanger sequencing, and digested using the restriction sites AscI and BamHI (New England BioLabs). The digested product was then ligated into the binary vector pFGC5941 and cloned into Agrobacterium tumefaciens (strain GV3101). For plant transformation, Agrobacterium 400 mL liquid cultures were incubated at 28 C overnight and after centrifugation, resuspended in a 300 mL transformation solution (5% sucrose and 0.02% Silwet L-77). Each allele of IAA2 was transformed into Arabidopsis thaliana (Col-0) by floral dip and grown to seed production.
For transformant selection, 40 mg of transformed seeds for each IAA2 allele were cleaned with bleach solution (12.5%) and plated at half MS selective media with Cefotaxime (200 mg/L) and glufosinate-ammonium (7.5 mg/L). After two weeks, positive transformants were transferred to a second selective plate with half MS, Cefotaxime (100 mg/L) and glufosinate-ammonium (5 mg/L). After selection, potential transformants were transferred to soil and grown until seed production. For T2 selection, 36 seeds were cleaned and grown on half MS and glufosinate-ammonium (5 mg/L) media. T3 homozygous plants containing just one copy of the T-DNA vector were selected and IAA2 expression was analyzed using the same primers from mustard expression assay (see below), AtCyclophilin and AtActin2 were used as normalization genes. […]

[5] = system: S. orientale F3 plants (cross B); test: progeny test segregation analysis, visual injury after 2,4-D spray; format: in vivo, Sisymbrium orientale; conditions: 200 gai ha^-1 2,4-D, 28 days after treatment
Method: A progeny test segregation analysis was performed on 219 F3 plants derived from self-pollination of a heterozygous F2 individual from cross B, identified via progeny test due to segregation of 2,4-D resistance in the F3 progeny. Plants were sprayed with 200 gai ha^−1 2,4-D at the 5 true leaf stage. Damage percentage was evaluated at 28 days after treatment. Leaf tissue was harvested and genomic DNA was extracted by CTAB. A KASP assay was performed with primers and methods as described above. To further test the co-segregation between the resistant phenotype and IAA2Δ27, nine each of R and S RILs from cross A and three each of R and S RILs from cross B were genotyped using the KASP assay. Two individuals were genotyped from each RIL.

[6] = Arabidopsis transformed with wild type S. orientale IAA2

SMILES	fold more resistant compared to S plants [1] [fold]	root growth tolerance [2]	root growth tolerance compared with null vector or wild type gene (Arabidopsis root growth)	association of the herbicide/IAA/TIR1 complex (Ka) (TIR1/auxin/IAA complex)	dissociation of the herbicide/IAA/TIR1 complex (Kd) (TIR1/auxin/IAA complex)	increase of IAA2 expression compared to untreated plants and DMSO control (IAA2 expression; R seedlings) [fold]	increase of IAA2 expression compared to untreated plants and DMSO control (IAA2 expression; S seedlings) [fold]	relative expression (RE) of IAA2 (IAA2 expression; treated resistant plants)	relative expression (RE) of IAA2 (IAA2 expression; treated susceptible plants)	root growth response (Arabidopsis root growth)	further results
Cc1cc(Cl)ccc1OCC(=O)O [MCPA]	20	higher tolerance; also recorded: confers resistance									
O=C(O)c1nc(Cl)ccc1Cl [Clopyralid]			higher tolerance; also recorded: confers resistance								
O=C(O)Cc1c[nH]c2ccccc12 [IAA, indoleacetic acid]			higher tolerance; also recorded: confers resistance	slower association	more rapid dissociation; also recorded: faster	9.5	7	0.62	1		
O=C(O)COc1ccc(Cl)cc1Cl [2,4-D, 2,4-dichlorophenoxyacetic acid]	22		higher tolerance; also recorded: confers resistance	slower association	more rapid dissociation; also recorded: faster	2.5	4	0.16	0.55	susceptible to inhibition	populations identified as resistant [3]: four identified as resistant; effect of treatment on IAA2 expression (FIG. 7) (IAA2 expression; S): increases IAA2 expression; response to herbicide treatment ([4]; Arabidopsis transformed with S. orientale IAA2Δ27): resistant; response to herbicide treatment [4, 6]: susceptible; also recorded: sensitive; response to herbicide treatment ([4]; wild type Arabidopsis): susceptible; also recorded: sensitive; average injury ([5]; heterozygous plants): 24%; injury ([5]; homozygous resistant plants): 12%; visual injury ([5]; sensitive plants homozygous for IAA2WT): 70%
COc1c(Cl)ccc(Cl)c1C(=O)O [Dicamba]			higher tolerance; also recorded: confers resistance	slower association	more rapid dissociation; also recorded: faster					susceptible to inhibition	root growth response compared with the null vector (Arabidopsis root growth; [6]): slightly more tolerant
COc1c(Cl)ccc(-c2nc(C(=O)OCc3ccccc3)c(Cl)c(N)c2F)c1F [Rinskor (florpyrauxifen-benzyl), florpyrauxifen-benzyl]		confers resistance									root growth tolerance ([2]; listed as fluorpyrauxifen-benzyl): higher tolerance
